This is an account of results in BindingDB's records for doi:10.1016/j.bmcl.2008.09.059 (Seoul National University, 2008).

This assay concerns the target Isocitrate lyase (Candida albicans, UniProt Q9P8Q7). As to the kind of experiment: Inhibition of candida albicans isocitrate lyase.

Chain of Isocitrate lyase (Q9P8Q7 whole entry): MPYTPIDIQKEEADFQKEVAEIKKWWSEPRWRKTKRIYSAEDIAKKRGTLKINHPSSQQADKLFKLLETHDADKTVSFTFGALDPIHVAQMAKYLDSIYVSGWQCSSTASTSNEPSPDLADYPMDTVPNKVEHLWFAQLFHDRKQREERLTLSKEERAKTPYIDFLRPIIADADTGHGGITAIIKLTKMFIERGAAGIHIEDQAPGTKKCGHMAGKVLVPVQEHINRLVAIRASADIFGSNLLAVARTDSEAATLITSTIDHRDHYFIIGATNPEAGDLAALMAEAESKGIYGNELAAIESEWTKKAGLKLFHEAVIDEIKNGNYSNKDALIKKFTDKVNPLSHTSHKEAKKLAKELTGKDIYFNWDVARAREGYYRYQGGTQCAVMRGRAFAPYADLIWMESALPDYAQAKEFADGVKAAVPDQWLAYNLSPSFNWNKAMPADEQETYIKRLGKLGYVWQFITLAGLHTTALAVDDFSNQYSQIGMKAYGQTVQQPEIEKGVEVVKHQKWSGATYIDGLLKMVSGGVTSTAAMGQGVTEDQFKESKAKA

Molecule `CC1=CC[C@H]2C(C)(C)CCC[C@]2(C)[C@H]1C[C@@H](OS(=O)(=O)O)[C@H](C)CCC/C(C)=C/Cc1cc(O)ccc1O` returned an IC50 of 158 µM.
